Molecular target: T1, Recombinant (1-346) HPK1 (h) (Homo sapiens, UniProt Q92918)
T1 construct: Recombinant (1-346) HPK1 (h) is incubated with 8 mM MOPS pH 7.0
T1 sequence (Q92918 1-346): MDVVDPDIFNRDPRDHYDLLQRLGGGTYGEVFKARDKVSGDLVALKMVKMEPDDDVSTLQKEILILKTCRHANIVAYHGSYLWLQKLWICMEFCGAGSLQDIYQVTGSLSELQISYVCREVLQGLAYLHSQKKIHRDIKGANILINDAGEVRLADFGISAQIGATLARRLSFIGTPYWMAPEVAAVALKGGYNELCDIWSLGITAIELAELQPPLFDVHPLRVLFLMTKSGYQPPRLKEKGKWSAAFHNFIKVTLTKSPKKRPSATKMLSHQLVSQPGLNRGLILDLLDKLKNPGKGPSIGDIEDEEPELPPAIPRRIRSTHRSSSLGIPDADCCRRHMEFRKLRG
Assay: HPK1 human STE kinase enzymatic radiometric assay
Assay type: biochemical
Conditions: read-out: HPK1 IC50 nM Range
How it was run: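 Recombinant HPK1 (1-346) incubated 40 min at RT with 0.33 mg/mL myelin basic protein and [gamma-33P]-ATP in 8 mM MOPS pH 7.0, 0.2 mM EDTA, 10 mM Mg acetate; reaction started with Mg/ATP. Stopped with 0.5% phosphoric acid, spotted on P30 filtermat, washed, scintillation counted. Compounds tested as 9-point 3-fold dilutions.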

| Structure (SMILES) | IC50 |
| --- | --- |
| COC1CCN(Cc2cc(-c3nc(-c4cc5c(cc4F)C(=O)NCC5)c(N)nc3F)ccc2N2CCOCC2)CC1 [Example I-118, 6-(3-amino-5-fluoro-6-(3-((4-methoxypiperidin-1-yl)methyl)-4-morpholinophenyl)pyrazin-2-yl)-7-fluoro-3,4-dihydroisoquinolin-1(2H)-one] | 11 to 100 nM |
| CCN(C)Cc1cc(-c2nc(-c3ccc4c(=O)[nH]cc(F)c4c3)c(N)nc2F)cc(C)c1OC [Example I-298, 6-(3-amino-6-(3-((ethyl(methyl)amino)methyl)-4-methoxy-5-methylphenyl)-5-fluoropyrazin-2-yl)-4-fluoroisoquinolin-1(2H)-one] | 11 to 100 nM |
| CN(C)Cc1cc(-c2nc(-c3cc(F)c4c(c3)CCNC4=O)c(N)nc2F)ccc1F [Example I-274, 6-(3-amino-6-(3-((dimethylamino)methyl)-4-fluorophenyl)-5-fluoropyrazin-2-yl)-8-fluoro-3,4-dihydroisoquinolin-1(2H)-one] | 101 to 1000 nM |
| COC1CCN(Cc2cc(-c3nc(-c4ccc5c(c4)CCNC5=O)c(N)nc3F)ccc2N2CCOCC2)CC1 [Example I-138, 6-(3-amino-5-fluoro-6-(3-((4-methoxypiperidin-1-yl)methyl)-4-morpholinophenyl)pyrazin-2-yl)-3,4-dihydroisoquinolin-1(2H)-one] | 11 to 100 nM |
| CN(C)[C@@H]1CCOc2ccc(-c3nc(-c4ccc5c(=O)[nH]ccc5c4)c(N)nc3F)cc21 [Example I-286, (R)-6-(3-amino-6-(4-(dimethylamino)chroman-6-yl)-5-fluoropyrazin-2-yl)isoquinolin-1(2H)-one] | 11 to 100 nM |
| CC1NC(=O)c2c(F)cc(-c3nc(-c4ccc(N5CCN(C6CCC6)CC5)cc4)c(F)nc3N)cc2C1(F)F (stereo not shown) [Example I-150, 6-(3-amino-6-(4-(4-cyclobutylpiperazin-1-yl)phenyl)-5-fluoropyrazin-2-yl)-4,4,8-trifluoro-3-methyl-3,4-dihydroisoquinolin-1(2H)-one] | 11 to 100 nM |
| Nc1nc(F)c(-c2ccc(N3CCN(CC4CC4)CC3)cc2)nc1-c1cc2c(F)c[nH]c(=O)c2cc1F [Example I-141, 6-(3-amino-6-(4-(4-(cyclopropylmethyl)piperazin-1-yl)phenyl)-5-fluoropyrazin-2-yl)-4,7-difluoroisoquinolin-1(2H)-one] | 0.1 to 10 nM |
| Cc1[nH]c(=O)c2cc(F)c(-c3nc(-c4ccc(N5CCN(C(C)C)CC5)cc4)c(F)nc3N)cc2c1F [Example I-168, 6-(3-amino-5-fluoro-6-(4-(4-isopropylpiperazin-1-yl)phenyl)pyrazin-2-yl)-4,7-difluoro-3-methylisoquinolin-1(2H)-one] | 0.1 to 10 nM |
| Cc1[nH]c(=O)c2ccc(-c3nc(-c4ccc(C5CCOCC5)c(CN(C)C)c4)c(F)nc3N)cc2c1Cl [Example I-125, 6-(3-amino-6-(3-((dimethylamino)methyl)-4-(tetrahydro-2H-pyran-4-yl)phenyl)-5-fluoropyrazin-2-yl)-4-chloro-3-methylisoquinolin-1(2H)-one] | 0.1 to 10 nM |

The remaining lines, values ahead:

| IC50 | Structure (SMILES) |
| --- | --- |
| 0.1 to 10 nM | Nc1nc(F)c(-c2ccc(N3CCOCC3)cc2)nc1-c1cc2c(cc1F)C(=O)NCC2 [Example I-34, 6-(3-amino-5-fluoro-6-(4-morpholinophenyl)pyrazin-2-yl)-7-fluoro-3,4-dihydroisoquinolin-1(2H)-one] |
| 0.1 to 10 nM | Nc1nc(F)c(-c2ccc(N3CCOCC3)c(CN3CCCC3)c2)nc1-c1cc(F)c2c(c1)CCNC2=O [Example I-112, 6-(3-amino-5-fluoro-6-(4-morpholino-3-(pyrrolidin-1-ylmethyl)phenyl)pyrazin-2-yl)-8-fluoro-3,4-dihydroisoquinolin-1(2H)-one] |
| 0.1 to 10 nM | CC(c1cc(-c2nc(-c3ccc4c(=O)[nH]cc(F)c4c3)c(N)nc2F)ccc1O)N(C)C (stereo not shown) [Example I-302, 6-(3-amino-6-(3-(1-(dimethylamino)ethyl)-4-hydroxyphenyl)-5-fluoropyrazin-2-yl)-4-fluoroisoquinolin-1(2H)-one] |
| 0.1 to 10 nM | C[C@@H]1CN(c2ccc(-c3nc(-c4ccc5c(=O)[nH]cc(F)c5c4)c(N)nc3F)cc2CN(C)C)C[C@H](C)O1 [Example I-230, 6-(3-amino-6-(3-((dimethylamino)methyl)-4-((2R,6S)-2,6-dimethylmorpholino)phenyl)-5-fluoropyrazin-2-yl)-4-fluoroisoquinolin-1(2H)-one] |
| 0.1 to 10 nM | COC1CN(Cc2cc(-c3nc(-c4cc(F)c5c(c4)CCNC5=O)c(N)nc3F)ccc2N2CCOCC2)C1 [Example I-192, 6-(3-amino-5-fluoro-6-(3-((3-methoxyazetidin-1-yl)methyl)-4-morpholinophenyl)pyrazin-2-yl)-8-fluoro-3,4-dihydroisoquinolin-1(2H)-one] |
| 0.1 to 10 nM | Cc1cc2cc(-c3nc(-c4ccc(N5CCN(CCCC(F)F)CC5)cc4)c(F)nc3N)cc(F)c2c(=O)[nH]1 [Example I-159, 6-(3-amino-6-(4-(4-(4,4-difluorobutyl)piperazin-1-yl)phenyl)-5-fluoropyrazin-2-yl)-8-fluoro-3-methylisoquinolin-1(2H)-one] |
| 0.1 to 10 nM | Nc1nc(F)c(-c2ccc(C3CCOCC3)c(CN3CCC3)c2)nc1-c1ccc2c(c1)CCNC2=O [Example I-169, 6-(3-amino-6-(3-(azetidin-1-ylmethyl)-4-(tetrahydro-2H-pyran-4-yl)phenyl)-5-fluoropyrazin-2-yl)-3,4-dihydroisoquinolin-1(2H)-one] |
| 0.1 to 10 nM | Nc1nc(F)c(-c2ccc(N3CCN(CCCC(F)F)CC3)cc2)nc1-c1cc(F)c2c(c1)CCNC2=O [Example I-137, 6-(3-amino-6-(4-(4-(4,4-difluorobutyl)piperazin-1-yl)phenyl)-5-fluoropyrazin-2-yl)-8-fluoro-3,4-dihydroisoquinolin-1(2H)-one] |
| 0.1 to 10 nM | Nc1nc(F)c(-c2ccc(N3CCN(CC4CC4)CC3)cc2)nc1-c1ccc2c(c1)C1(CC1)CNC2=O [Example I-108, 6′-(3-amino-6-(4-(4-(cyclopropylmethyl)piperazin-1-yl)phenyl)-5-fluoropyrazin-2-yl)-2′,3′-dihydro-1′H-spiro[cyclopropane-1,4′-isoquinolin]-1′-one] |
| 0.1 to 10 nM | CN(C)[C@@H]1COc2ccc(-c3nc(-c4cc(F)c5c(=O)[nH]cc(F)c5c4)c(N)nc3F)cc21 [Example I-253, (S)-6-(3-amino-6-(3-(dimethylamino)-2,3-dihydrobenzofuran-5-yl)-5-fluoropyrazin-2-yl)-4,8-difluoroisoquinolin-1(2H)-one] |
| 0.1 to 10 nM | Nc1nc(F)c(-c2ccc(N3CCN(CCC(F)F)CC3)cc2)nc1-c1cc(F)c2c(c1)CCNC2=O [Example I-82, 6-(3-amino-6-(4-(4-(3,3-difluoropropyl)piperazin-1-yl)phenyl)-5-fluoropyrazin-2-yl)-8-fluoro-3,4-dihydroisoquinolin-1(2H)-one] |
| 0.1 to 10 nM | CCN(C)Cc1cc(-c2nc(-c3cc4c(cc3F)C(=O)NCC4)c(N)nc2F)cc(C)c1OC [Example I-303, 6-(3-amino-6-(3-((ethyl(methyl)amino)methyl)-4-methoxy-5-methylphenyl)-5-fluoropyrazin-2-yl)-7-fluoro-3,4-dihydroisoquinolin-1(2H)-one] |
| 0.1 to 10 nM | C[C@@H]1CCCN1Cc1cc(-c2nc(-c3ccc4c(c3)C(F)(F)CNC4=O)c(N)nc2F)ccc1C1CCOCC1 [Example I-232, (R)-6-(3-amino-5-fluoro-6-(3-((2-methylpyrrolidin-1-yl)methyl)-4-(tetrahydro-2H-pyran-4-yl)phenyl)pyrazin-2-yl)-4,4-difluoro-3,4-dihydroisoquinolin-1(2H)-one] |

Source: patent US20240425479A1, “HALO-SUBSTITUTED AMINO AZA-HETEROARYL COMPOUNDS AS INHIBITORS OF THE HAEMATOPOIETIC PROGENITOR KINASE 1 (HPK1)” (priority 2021, published 2024)
